From patent publication US20180339051A1, “COMPOSITION FOR TOPICAL APPLICATION COMPRISING DIMETHYL ISOSORBIDE, A POLYOL, AND A PHENOLIC OR POLYPHENOLIC ANTIOXIDANT” (MEDSKIN SOLUTIONS DR. SUWELACK AG, priority 2015, published 2018)

Tests used:
[1] = assay type: physicochemical
Procedure: Concretely, 10 ml of a pure solvent or a solubiliser mixture were stirred in a beaker at ambient temperature. An amount of 2 mg phenolic or polyphenolic antioxidant was dispersed in the mixture and stirred. If the mixture became clear, the addition of phenolic or polyphenolic antioxidant was repeated until the mixture remained turbid even after stirring for 10 min. The maximum solubility was calculated as a percentage by mass (wt %) based on this experiment.

pig skin biopsies = experiment: Skin Antioxidative Potential (SAP), ESR with test radical TEMPO, ex vivo; assay type: cell-based; details: normalized to placebo-treated skin = 100%
From the text: Skin has intrinsic antioxidative protection thanks to the many enzymatic and non-enzymatic antioxidant systems present in the epidermis. A Skin Antioxidative Potential (SAP) can be measured by ESR spectroscopy using an active test radical that is reduced by the antioxidant systems inside the epidermis and dermis. The SAP value is a quantitative ex vivo determination of the antioxidant activity inside the epidermal and dermal layers of the skin.
In contrast, if the SAP value is below 100%, the topical treatment has diminished the skin's antioxidant defense system. Topical treatments with such negative effects on the skin antioxidant system are for example application of a chemical such as detergents or physical stress such as sun exposure.
The method entails applying the composition comprising the active substance (in this case resveratrol) to pig skin biopsies and testing the antioxidative power of the active substance. The antioxidative effect is dependent on whether the active substance is absorbed into the skin.
The measurements mere carried out as follows. Skin biopsies obtained from local slaughterhouse (pig skin, 6 month old animals, external lobe of the ears) were washed, the subdermal fat was removed and the skin was cut in 2×2 cm pieces.
Emulsions made as in example 2, with or without resveratrol, and with or without a solubiliser mix (dimethyl isosorbide, 1,5-pentanediol and panthenol) were applied on the epidermal layer of the biopsies. Skin pieces were placed on a filter paper saturated with the test radical (TEMPO, 2,2,6,6-tetramethyl piperidine-N-oxyl, Sigma-Aldrich, Munich, Germany). Skin biopsies of 4 cm were taken, placed in a special ESR tissue cell and ESR spectra of the test radical were recorded in a time-course experiment.
The amplitudes of the ESR spectra were plotted against time and the obtained kinetics were fitted using a mono-exponential first order decay algorithm.
The measurements were made after penetration times of between ten minutes and four hours. All values were normalized to the placebo-treated skin. […]

| Molecule | solubility in water [1] | SAP value (pig skin biopsies; penetration time 10 min) | SAP value (pig skin biopsies; penetration time 30 min) | SAP value (pig skin biopsies; penetration time 120 min) |
| --- | --- | --- | --- | --- |
| Oc1ccc(/C=C/c2cc(O)cc(O)c2)cc1 [Resveratrol, 3,5,4′-trihydroxy-trans-stilbene] | less than 0.01 wt % |  |  |  |
| tocopherol |  | 114 ± 3% | 103 ± 6% | 100 ± 6% |
